Source: EP1594520B1, “USE OF BRADYKININ-B2 RECEPTOR ANTAGONISTS FOR TREATING OSTEOARTHROSIS” (Sanofi-Aventis Deutschland GmbH, priority 2003, dated 2006)

System: SW1353 Zellen
Assay: MMP-3 release from IL-1 stimulated SW1353 chondrosarcoma cells (MMP3 ELISA of the culture supernatant)
Format: cell-based
Experimental: Für die Analyse der krankheitsmodifizierenden Wirkung von HOE140 in einem Knorpelrelevanten Zellkulturmodel wurde die MMP3 Expression in der Chondrosarcom Zellline SW1353 (ATCC: HTB 94) analysiert. Für die Versuche wurden SW1353 Zellen unter Standard Bedingungen (37°C, 5% CO2) in DMEM-Glutamax mit 10% Fötalem Kälberserum (FKS) in Plastikkulturflaschen kultiviert. Nach ab-trypsinieren der Zellen wurden 50.000 Zellen je well einer 96-well Flachboden Platte in Medium ohne FKS ausgesät und mit der Verbindung HOE140 im Inkubator vorinkubiert. […] Nach 24 Stunden Inkubation unter Standardbedingungen wurde der Zellkulturüberstand abgenommen, 5 Minuten zentrifugiert und bei -20 °C bis zur weiteren Analyse eingefroren. Die Analyse der MMP3 Expression in den Zellkulturüberständen erfolgt dann mittels eines kommerziellen MMP3 ELISA Testsystems (Amersham) nach Angaben des Herstellers. Parallel dazu wurde mit den verbleibenden Zellen ein WST-Zytotoxizitätstest durchgeführt. Dazu wurde das kommerzielle Testsystem der Firma Roche verwendet und die Messung nach Angaben des Herstellerprotokolls durchgeführt.
Die nachfolgende Tabelle 1 zeigt die Ergebnisse. Bradykinin erhöht die MMP3 Freisetzung um mehr als 30%. […] Tabelle 1 MMP-3 Freisetzung aus SW-Zellen

Substance	Erhöhung der MMP3 Freisetzung (Bradykinin added to IL1-stimulated SW cells)	MMP-3 Freisetzung MW (OD450nm) (IL1α + Bradykinin (0,1 µM), no antagonist)	Relativwerte bezogen auf Ausgangswert (IL1α + Bradykinin (0,1 µM), no antagonist, IL1α (0,05 ng/ml) alone = 100)	MMP-3 Freisetzung MW (OD450nm) (IL1α + Bradykinin (0,1 µM) + 0,1 µM HOE140)	Relativwerte bezogen auf Ausgangswert (IL1α + Bradykinin (0,1 µM) + 0,1 µM HOE140, IL1α alone = 100)	MMP-3 Freisetzung MW (OD450nm) (IL1α + Bradykinin (0,1 µM) + 0,05 µM HOE140)	MMP-3 Freisetzung MW (OD450nm) (IL1α + Bradykinin (0,1 µM) + 0,5 µM HOE140)	Relativwerte bezogen auf Ausgangswert (IL1α + Bradykinin (0,1 µM) + 0,05 µM HOE140, IL1α alone = 100)	Relativwerte bezogen auf Ausgangswert (IL1α + Bradykinin (0,1 µM) + 0,5 µM HOE140, IL1α alone = 100)	MMP-3 Freisetzung MW (OD450nm) (IL1α + Bradykinin (0,1 µM) + 1 µM HOE140)	Relativwerte bezogen auf Ausgangswert (IL1α + Bradykinin (0,1 µM) + 1 µM HOE140, IL1α alone = 100)	Hemmung der durch Bradykinin erhöhten Freisetzung von MMP 3 (IL1α + Bradykinin (0,1 µM), 0,05 to 1 µM HOE140)
Bradykinin: natürlich vorkommendes Nonapeptid, das einige pharmakologische Effekte aufweist, die zu Entzündungen und Schmerzen führen (RPPGFSPFR; Bradykinin; UniProt P01042 381-389, looked up) [reference compound]	> 30%	433 OD450nm	132,0	–	–	–	–	–	–	–	–	–
D-Arginyl-L-arginyl-L-prolyl-L-prolylglycyl-3-(2-thienyl)-L-alanyl-L-seryl-(3R)-1,2,3,4-tetrahydro-3-isochinolincarbonyl-(2S,3aS,7aS)-octahydro-1H-indol-2-carbonyl-L-arginin [HOE140]	–	–	–	371 OD450nm	113,1	458 OD450nm	309 OD450nm	139,6	94,2	306 OD450nm	93,3	dosis-abhängig gehemmt
